Results reported in a melting point compilation (Tetko et al.; mined from patent text by program, amines drawn as free bases though some values may be those of a salt).

SMILES	melting point [°C]
CSc1ncc(C)c(=O)[nH]1	238 to 239
O=C(O)CSC1c2ccccc2COc2ccc(OCc3ccc4ccccc4n3)cc21 (centres undefined)	174 to 179
CCCc1c(O)ccc2ccc(OCC(=O)OC)cc12	122 to 124
CSc1ccc(-c2nn(Cc3ccc(F)cc3F)c(=O)cc2-c2ccc(Cl)cc2)cc1	157 to 158
O=C(c1ccc(Cl)cc1)c1cccc(O)c1	154
O=C(O)COc1cccc2c1Cc1sc(SCCC(c3ccccc3)c3ccccc3)nc1-2	100 to 103
CC(C)(C)OC(=O)NNC(=O)N1CCN(NC(=O)OCc2ccccc2)C1=O	195 to 198
COc1cc2c(cc1F)OCC21C(=O)N(Cc2ccc(C(F)(F)F)o2)c2ccccc21 (centres undefined)	132 to 134
COCCOC(=O)c1cc(C(=O)NOC)c(O)c2ncc(Cc3ccc(F)cc3)cc12	166 to 168
CC1(C)c2cc(O)ccc2OC1CO (centres undefined)	79 to 80
COc1ccnc(CCc2nc3cc(-c4ccc(S(=O)(=O)Nc5ccccc5)cc4)cnc3[nH]2)c1	231 to 233
Fc1ccc2c(CCCN3CCN(c4n[nH]c5ccccc45)CC3)noc2c1	139 to 141
O=C(OC1CCCCC1)C1=C(c2ccccc2)C(c2ccccc2)OC1=O (centres undefined)	139 to 142
Nc1ccc(Sc2ccccc2)cc1Br	61 to 63
NC(=O)c1cc2c(Sc3ccc(Cl)cc3)cncc2s1	239 to 241
Cc1cc2c(c3c1NC(=O)CC3)OC(CN=[N+]=[N-])C2 (centres undefined)	146 to 149
CC(=O)c1cn(Cc2ccc(F)cc2)c2ccccc2c1=O	185 to 187
CC(NC(=O)Cc1cc(F)cc(F)c1)C(=O)NC1C(=O)NC(c2cccnc2)c2ccccc21 (centres undefined)	100 to 120
O=C1Nc2cc(C(F)(F)F)cc(C(F)(F)F)c2C1=O	200 to 203
COC(=O)c1ccc(CC(C)NCC(O)c2ccc(O)c(CO)c2)cc1O (centres undefined)	81 to 83

SMILES	melting point [°C]
CC(=O)c1ccc2sc3ccc(C(C)=O)cc3c2c1	207 to 210
CNC(=O)CCCCN1CCC(C(O)(c2ccc(F)cc2)c2ccc(F)cc2)CC1	130 to 131
N#CC=CC(=O)C=NN1CC(=O)NC1=O	171 to 173
COc1cccc(COc2ccc(N)nn2)c1OC	103 to 106
CCCCCn1c(=O)c2cc(C(=O)OCC)cn2c2ccccc21	151 to 152
COCCn1cc(C(=O)O)c2c(C(=O)N3CCOCC3)cccc21	201 to 203
COC(=O)c1ccccc1-c1cc(-c2ccc(OC)cc2)on1	96.5 to 98
COC(=N)N1CCC(c2nn(-c3ccccc3)c3ccccc23)CC1	80 to 83
C=CCc1c(OCCCSCc2nnn[nH]2)ccc(C(C)=O)c1O	129 to 132
CC12CC(=O)C3C(CCC4CC(O)CCC43C)C1CCC2C(=O)COc1ccc(N)cc1 (centres undefined)	179 to 180
COc1ccc(CNC(=O)c2cc3c(=O)n(C[C@H]4CC[C@H](C(=O)O)CC4)cnc3cn2)cc1	232 to 233
O=c1c2ccc(O)cc2[nH]n1Cc1ccccc1	206 to 207
COCc1ccc2nc(SCCN3CCN(CC(=O)Nc4c(C(C)C)cccc4C(C)C)CC3)oc2c1COC	96 to 97
Cc1ccc(S(=O)(=O)OCCN(c2ccc(OC(F)(F)F)cc2)S(=O)(=O)c2ccc(C)cc2)cc1	88
CCc1nc2c(N)nc(C)c(C)c2n1CCOCCNC(=O)N1CCOCC1	182 to 184
O=C(c1ccccc1)N1CCc2[nH]c3cccc(CCCO)c3c2CC1	144 to 147
CCNC(=O)C(c1ccccc1)c1ccccc1	87
CCCCCC(C#CC1C(O)CC(=O)C1CCCCCCC(=O)OC)OC1CCCCO1 (mixture of isomers)	84 to 85
CNC(=C[N+](=O)[O-])NCCSCC1(OC)C=CC=NC1 (centres undefined)	146 to 147
C#CCOc1cc(-c2nn(C)c(S(C)(=O)=O)c2C)c(F)cc1Cl	123 to 124

SMILES	melting point [°C]
CCOC(=O)c1c(C)cc2cnc(Cc3ccccc3)nc2c1C	77 to 79
Cc1ccc(C=C2NC(=O)N(c3cc(F)ccc3F)C2=O)cc1	218 to 224
O=C(Nc1cccc(Nc2ccc3c(c2)NC(=O)C3=Cc2ccc[nH]2)c1)Nc1cccc(C(F)(F)F)c1	253 to 256
CC(C)(C)c1ccc(S(=O)(=O)/C=C/C(N)=O)cc1	151
Cc1nc(N2CCN(CCCc3ccccc3)C2=O)sc1C(=O)O	218 to 221
CC(C)N1C(=O)c2ccccc2Oc2ccccc21	102 to 103
O=C(O)c1cnc2ccc(Cl)cc2c1-c1ccccc1	269 to 270
O=C(O)c1ccc(-n2nc(-c3ccccc3O)nc2-c2ccccc2O)cc1	255 to 262
Cc1ccc(C)c(OCc2ccccc2C(=O)c2ccon2)c1	90.5 to 92
COCCN1C(=O)CCCc2c1ccc(Nc1ncc(Cl)c(Nc3ccc(N4CCOCC4)cc3OC)n1)c2OC	136 to 138
N#Cc1cc(F)c(-n2nc(C(F)(F)F)n(C(F)F)c2=O)cc1F	68
CCNC(=O)[C@@H]1C[C@H](SCc2ccc(OC)cc2)CN1CC	60 to 61
Nc1nnc2c3c(c(N4CCCC4)nn12)CCCC3	243 to 244
O=C(O)C1=Cc2cc(-c3ccccc3)ccc2CC1	208 to 209
Cc1cccc(-c2nc(NC(=O)c3cccnc3)sc2-c2ccnc(NCc3ccccc3)c2)c1	220 to 222
OCc1cccc(/C=C/c2nc3cc(F)ccc3s2)n1	179 to 181
COc1ccc2nscc2c1	51 to 55
Cc1ccc2c(cc(C(=O)O)n2CCCC#N)c1C	175
CCOc1ccc2c(c1)n(C1CCCCC1)c(=O)n2Cc1ccc(NC(=O)N(C)C)cc1OC	250

More lines, now with the values ahead:

melting point [°C]	SMILES
52 to 52.5	CC(=O)Oc1ccc(CCc2cc(OC(C)=O)cc(OC(C)=O)c2)cc1
208 to 210	O=C(c1cc(-c2ccccc2)c(=O)n2c1-c1ccccc1C2)N1CCN(c2ccccc2)CC1
118 to 120	CCOC(=O)C(=O)Nc1c(C)cc(C(F)(F)F)cc1[N+](=O)[O-]
179 to 180	O=C1N(N(c2ccccc2)c2ccccc2)c2ccccc2C1(Cc1ccnc(F)c1)Cc1ccnc(F)c1
153 to 155	O=C(O)COc1ccc(Br)cc1C(=O)NCc1ccc(Br)cc1F
58 to 60	CCN(CC)SNc1ccc(Oc2ccc(C(F)(F)F)cc2Cl)cc1F
140 to 144	O=C(c1cccs1)c1cnn2c(-c3cccc(NCc4ccoc4)c3)ccnc12
71 to 72	c1ccc(C(N=C2CCCCC2)c2ccccc2)cc1
113 to 114	O=[N+]([O-])c1cc(F)c(-c2ccc(C(F)(F)F)cc2)cc1F
184 to 186	Clc1ccc2c(NCc3ccccc3)c3cccn3nc2c1
189 to 190	CCOCc1nc2c(Cl)nc3ccccc3c2n1Cc1cc(-c2ccc(F)cc2)no1
113 to 114	Cc1cc(Oc2cccc(C(F)(F)F)c2)nn1C(=O)Nc1ccc(Cl)cc1Cl
136 to 138	O=[N+]([O-])c1cccc2c1nnn2SC(Cl)(Cl)Cl
110	CC(C)(O/N=C(\C(=O)Sc1nc2ccccc2s1)c1csc(N)n1)C(=O)OC(c1ccccc1)c1ccccc1
199	CC1=NN(C)c2nc(C)c(CCN3CCN(c4n[nH]c5ccccc45)CC3)c(=O)n2C1
160 to 162	Cn1nc(-c2ccccc2O)oc1=O
125 to 127	COC(=O)[C@H]1Cc2c([nH]c3ccccc23)[C@@H](c2ccc3c(c2)OCO3)N1C(=O)C(C)Cl (some centres undefined)
111 to 113	CCOc1nc(NCCN2CCCC2)nc(Nc2ccc(F)c(Cl)c2)n1
102 to 104	O=C(OCC(O)CO)c1ccc(C=Cc2csc3ccccc23)s1 (centres undefined)
176 to 178	COc1ccc(Nc2ccncc2)c(C(=O)N2CCCCC2)c1

melting point [°C]	SMILES
95 to 98	Cc1ccc2ccc(C(=O)NCc3ccc(Cl)cc3)c(O)c2n1
166 to 168	O=C(N[C@@H](Cn1cccn1)C(=O)O)OCc1ccccc1
133	CC(=O)OC1CSC(Oc2ccc(Cl)c(-c3cccnc3)c2)C(OC(C)=O)C1OC(C)=O (centres undefined)
256 to 259	COc1ccc(-c2nnc3c4ccccc4c(Nc4cccc(-c5nnn(C)n5)c4)nn23)cc1
> 300	COc1ccc(-c2[nH]nc3c2C(=O)c2c(NC(=O)CN4CCC(CN)CC4)cccc2-3)cc1
96 to 98	CCCCCCCCCCCc1nnc2n1-c1sc(CC)cc1C(c1ccc(O)cc1)OC2 (centres undefined)
70 to 71	COC(C)=CC(=O)Nc1cccc(SC)c1
174 to 175	O=[N+]([O-])c1cnc2ccc(Cl)cc2c1Nc1ccccc1
186 to 187	NS(=O)(=O)c1ccc(-c2ccc(Cl)n2-c2ccc(Cl)cc2Cl)cc1
268 to 270	CCCNC1=NS(=O)(=O)c2cc([N+](=O)[O-])ccc2N1
93 to 97	Clc1cccc(CC[C@H]2CNCCN2)c1
61 to 63	C[C@@H](CSC(F)(F)C(F)F)[C@](O)(Cn1cncn1)c1ccc(Cl)cc1Cl
63 to 70	COC(=O)c1ccc(OCCNC(=O)C2Cc3ccccc3N2S(=O)(=O)c2ccc(-c3cccc(C(F)(F)F)c3)cc2)cc1F (centres undefined)
181 to 183	CC(C)(C)c1ccc2c(O)c(-c3ccccc3)sc2n1
190 to 191	COc1ccc(-c2csc(CC(=O)O)n2)cc1OC1CC2CCC1C2 (centres undefined)
160	CC(C)SC1=C(C#N)C(c2ccccc2)(c2ccccc2)C(=O)N1
60 to 62	CC(=O)NC1(c2ccccc2)CCN(CCC(CN(CCc2ccccc2)CCc2ccccc2)c2ccc(Cl)c(Cl)c2)CC1 (centres undefined)
244 to 246	O=C(Nc1ccc2nc(CN3CCCC3)ccc2c1)[C@H]1CO[C@H](c2ccc(Cl)cc2)OC1
142 to 144	O=C(O)CCC/C=C/c1ccc2ccccc2n1
168	COc1ccccc1C1(O)C(O)CCC2CNCC21 (centres undefined)
